From paper doi:10.1101/2024.07.14.603434v1 (biorxiv, 2024)

Experiments:
NagA = target: T1, NagA (Streptomyces coelicolor, UniProt Q9KXV7); experiment: decrease of amide absorbance at […] nm; type: biochemical; conditions: phosphate buffer pH 7.4, 30 °C
T1 sequence (Q9KXV7 1-381): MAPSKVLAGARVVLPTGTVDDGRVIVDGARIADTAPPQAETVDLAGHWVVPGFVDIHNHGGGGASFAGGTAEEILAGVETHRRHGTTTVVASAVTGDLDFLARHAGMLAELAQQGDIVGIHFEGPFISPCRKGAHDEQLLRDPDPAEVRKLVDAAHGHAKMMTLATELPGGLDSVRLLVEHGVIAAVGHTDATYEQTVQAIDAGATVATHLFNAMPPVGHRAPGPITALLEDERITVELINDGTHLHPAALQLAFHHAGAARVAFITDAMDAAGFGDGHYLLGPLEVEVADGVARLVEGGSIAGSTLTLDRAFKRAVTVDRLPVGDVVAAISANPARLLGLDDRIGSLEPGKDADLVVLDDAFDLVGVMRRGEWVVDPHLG

NagS = target: T2, NagS (Streptomyces coelicolor, UniProt Q9K3V1); experiment: UV absorbance of product at […] nm; type: biochemical; conditions: 100 mM phosphate, 100 mM NaCl, pH 7.4 buffer stock; 30 °C
T2 sequence (Q9K3V1 1-251): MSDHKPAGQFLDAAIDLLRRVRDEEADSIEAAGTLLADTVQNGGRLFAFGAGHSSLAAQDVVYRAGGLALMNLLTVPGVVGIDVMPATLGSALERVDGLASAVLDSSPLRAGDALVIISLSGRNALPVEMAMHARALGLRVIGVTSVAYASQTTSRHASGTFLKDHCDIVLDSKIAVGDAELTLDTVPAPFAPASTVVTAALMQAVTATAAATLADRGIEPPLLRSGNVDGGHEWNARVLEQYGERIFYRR

| Km (NagA) [µM] | Km (NagS) [µM] | SMILES |
| --- | --- | --- |
| 2840 ± 410 | – | CC(=O)N[C@H]1C(O)O[C@H](COP(=O)(O)O)[C@H](O)[C@@H]1O (some centres unmarked) [GalNAc-6P] |
| 1590 ± 210 | 450 ± 30 | CC(=O)N[C@H]1C(O)O[C@H](COP(=O)(O)O)[C@@H](O)[C@@H]1O (some centres unmarked) [GlcNAc-6P] |
| 2400 ± 440 | 680 ± 50 | CC(=O)N[C@@H]1C(O)O[C@H](COP(=O)(O)O)[C@@H](O)[C@@H]1O (some centres unmarked) [ManNAc-6P] |
